In US8999931B2, “Pharmaceutical composition using gonadotropin-releasing hormone (GNRH) combined variants as immunogen” (Centro de Ingenieria Genetica y Biotecnologia, priority 2008, dated 2015):
Where “and” joins values, the source holds several entries; their conditions need not be identical. Equal values may be shown once. Read-outs that look alike come from different tables or passages of the source.

Columns and labels:
testicles = assay: Testicles weight evaluation at slaughter (100 days), treatment effect; assay type: in vivo, Copenhagen rats; conditions: mean testicles weight vs placebo at slaughter (100 days); healthy adult rats, 750 μg total peptide
prostate = assay: Prostate weight evaluation at slaughter (100 days), treatment effect; assay type: in vivo, Copenhagen rats; conditions: mean prostate weight vs placebo at slaughter (100 days); healthy adult rats, 750 μg total peptide
testosterone = assay: Testosterone levels determination / testosterone ablation after immunization; assay type: in vivo; conditions: oily adjuvant (Montanide type); 2 immunizations in prepuberous animals, 3 or 4 immunizations in adult animals
native GnRH peptide = assay type: in vivo, Copenhagen rats; conditions: for anti-GnRH antibodies titers: 750 μg total peptide, fortnightly s.c.

Row | Sequence | Effect on Testicles (Etreatment=1−(Ptreatment/Pplacebo)) (testicles) | Effect on Prostate (Etreatment=1−(Ptreatment/Pplacebo)) (prostate) | testosterone ablation (testosterone) | seroconversion (anti-GnRH) (native GnRH peptide; after the fourth immunization, oily adjuvant (Montanide type)) [%] | seroconversion (anti-GnRH) (native GnRH peptide; after the third immunization, s.c., Montanide adjuvant) [%] | anti-GnRH response relative to TT-GnRHm1 variant (native GnRH peptide; doses equal to the TT-GnRHm1 variant) [times weaker] | highest anti-GnRH antibodies titers reached (native GnRH peptide; over the whole experiment (5 immunizations, 100 days)) | seroconversion (anti-GnRH) (native GnRH peptide; after the first immunization, s.c., Montanide adjuvant) | anti-GnRH antibodies titers (native GnRH peptide; after 75 days of the beginning of experiment) | anti-GnRH antibodies titers (native GnRH peptide; after 100 days / at the end of the experiment)
1 | QHWSYPLRPGGGQYIKANSKFIGITEL (Chemical synthesis of the peptide.GnRHm1Tox.) [GnRHm1-TT] | 0.43 | 0.41 | potent effect | 90 | 90 | 10 | 1/1000 |  |  | 
2 | IPGVAYTSPEVAWVGGGGQHWSYPLRP (GnRHm1 bonded at its amino-terminal end to the peptide P48 of the protein P64K of Neisseria meningitidis) [P48-P64K-GnRHm1] | 0.49 | 0.28 |  |  |  |  |  | 100% and 90% |  | 
3 | QYIKANSKFIGITELGGQ HWSYPLRPG (QYIKANSKFIGITELGGQHWSYPLRPG; GnRHm1 bonded at its amino-terminal end to epitope 830-844 of the tetanus toxoid) [TT-GnRHm1] | 0.55 | 0.42 |  |  |  |  |  |  | 1/6000 | 1/12000
